The source of these data is patent US20250295642A1, “FLUOROQUINOXALINONE DERIVATIVE FOR SELECTIVELY INHIBITING PARP1” (MEDSHINE DISCOVERY INC., priority 2022, published 2025).

Structures are written as SMILES. pIC50: −log10 of the molar value. Bounds are passed on as bounds.

For data set [1], the target named is PARP1 (Homo sapiens (Human), UniProt P09874). Description: Binding activity between compound and PARP1, fluorescence polarization assay. As to conditions: 8 nM PARP1, 5 nM fluorescent probe, 4 hours at room temperature. As to the method:
The fluorescence polarization assay was performed in 96-well black-walled plates (Greiner). The reaction buffer consisted of 50 mM Tris (pH 8), 0.001% Triton X100, 10 mM MgCl2, and 150 mM NaCl. Both the fluorescent probe and His-Avi-tagged PARP1 protein were manufactured by WuXi AppTec (Shanghai). In a 100 μL reaction system, 8 nM PARP1, 5 nM fluorescent probe, and the compounds were added respectively. The compound concentration was prepared following the starting concentration and dilution gradient in Table 1. […] The test sample was incubated at room temperature for 4 hours, protected from light. Fluorescence polarization values were measured using an En Vision plate reader. The obtained fluorescence polarization values and compound concentrations were subjected to nonlinear fitting using GraphPad 8.0 software to determine the IC50 values.
Background: Polarisation of emitted light reports the rotation of a fluorescent probe.

The target of data set [2] is PARP2 (Homo sapiens (Human), UniProt Q9UGN5). Description: Binding activity between compound and PARP2, fluorescence polarization assay. As to conditions: 3 nM PARP2, 5 nM fluorescent probe, 4 hours at room temperature. As to the method:
The fluorescence polarization assay was performed in 96-well black-walled plates (Greiner). The reaction buffer consisted of 50 mM Tris (pH 8), 0.001% Triton X100, 10 mM MgCl2, and 150 mM NaCl. Both the fluorescent probe and His-Avi-tagged PARP2 protein were manufactured by WuXi AppTec (Shanghai). In a 100 μL reaction system, 3 nM PARP2, 5 nM fluorescent probe, and the compounds were added respectively. The compound concentration was prepared following the starting concentration and dilution gradient in Table 2. The test sample was incubated at room temperature for 4 hours, protected from light. Fluorescence polarization values were measured using an EnVision plate reader. The obtained fluorescence polarization values and compound concentrations were subjected to nonlinear fitting using GraphPad 8.0 software to determine the IC50 values.

Data set [3] relates to DLD1 (BRCA2 KO) cells. Description: Anti-proliferation assay on DLD1 cells (BRCA2 KO). It is filed as cell-based. The note with it: Homo sapiens, DLD-1, 168 h; incubated for 7 days, chemiluminescent cell viability. As to the method:
DLD1 (BRCA2 KO) cells were seeded in white a 96-well plate with 80 μL of cell suspension per well, containing 1,000 DLD1 (BRCA2 KO) cells per well. The cell plate was incubated overnight in a CO2 incubator. The test compounds were 5-fold diluted with a multi-channel pipette to the 8th concentration, i.e., diluted from 2 mM to 0.0256 μM, and duplicate experiment was set. 78 μL of medium was added to an intermediate plate. Subsequently, 2 μL of the serially diluted compound per well was transferred to the corresponding wells of the intermediate plate and mixed well. 20 μL of the mixture per well was then transferred to the cell plate. The concentration of the compound transferred to the cell plate ranged from 10 μM to 0.128 nM. The cell plate was incubated for 7 days in a CO2 incubator. An additional cell plate was prepared to read the signal value on the day of compound addition, which served as the maximum value (Max in the following equation) for data analysis. The cell plate was added with 25 μL of chemiluminescent cell viability assay reagent per well and incubated at room temperature for 10 minutes to stabilize the luminescent signal. A multimode microplate reader was used for reading. […].

Data set [4] deals with MDA-MB-436 cells (BRCA1 mutation). Description: Anti-proliferation assay on MDA-MB-436 cells (BRCA1 mutation). It is filed as cell-based. The note with it: Homo sapiens, MDA-MB-436, 168 h; incubated for 7 days, chemiluminescent cell viability; read-out: IC50, proliferation inhibition on MDA-MB-436 cells (BRCA1 mutation). As to the method:
MDA-MB-436 cells (BRCA1 mutation) were seeded in black 96-well plates with clear bottoms. Each well contained 135 μL of cell suspension with 3,500 MDA-MB-436 cells (BRCA1 mutation). The cell plate was incubated overnight in a CO2 incubator. A 400× stock solution of the test compound was prepared. […] 78 μL of medium was added to an intermediate plate. Subsequently, 2 μL of the serially diluted compound per well was transferred to the corresponding wells of the intermediate plate. 2 μL of DMSO was added to the vehicle control and blank control. After mixing well, 15 μL of the mixture per well was then transferred to the cell plate. […] The cell plate was incubated for 7 days in a CO2 incubator. The cell plate was removed and equilibrated to room temperature for 30 minutes. 75 μL of chemiluminescent cell viability assay reagent was added to each well. The cell plate was shaken on an orbital shaker for 3 minutes to induce cell lysis, followed by 10 minutes of incubation at room temperature to stabilize the luminescent signal.

A short description of data set [5]: In vitro liver microsomal stability, human liver microsomes.
Experimental: (§1) The concentration of the compound in the samples was determined by LC-MS/MS.
(§2) Experimental process: The incubation was performed using 96-well incubation plates, with individual plates labeled as T0, T5, T15, T30, T45, T60, Blank60, and NCF60. The reaction time points corresponding to the incubation plates were set at 0, 5, 15, 30, 45, and 60 minutes. In the Blank60 plate, no test compound or control compound was added, and the sample was collected after 60 minutes of incubation. In the NCF60 plate, potassium phosphate buffer was used in place of the NADPH regeneration system and incubated for 60 minutes. All time point samples were taken from individual wells.
For the T0, T5, T15, T30, T45, T60, and NCF60 plates, 5 μL of either the test or control compound working solution and 100 μL of microsomal working solution (with a liver microsomal protein concentration of 0.5 mg/mL) were added. Only microsomal working solution was added to the Blank60 well. In the Blank60 plate, only the microsomal working solution was added. Then, the incubation plates, except for TO and NCF60, including Blank60, T5, T15, T30, T45, and T60, were pre-incubated in a 37° C. water bath for approximately 10 minutes.
For samples in the TO plate, 180 μL of stop solution (where the stop solution was a solution of acetonitrile and methanol (95:5, V/V) containing 100 ng/mL tolbutamide) was added before adding the NADPH regeneration system working solution.
50 μL of potassium phosphate buffer was added to each well of the NCF60 plate and incubated for 60 minutes.
After the pre-incubation of Blank60, T5, T15, T30, T45, and T60 incubation plates, 44 μL of NADPH regeneration system working solution was added to each sample well to initiate the reaction. Therefore, for sample wells containing either the test compound or the control compound working solutions, the final reaction concentration was 1 μM, with the concentration of liver microsomes at 0.5 mg/mL. The final concentrations of DMSO and acetonitrile in the reaction system were 0.01% (v/v) and 0.99% (v/v), respectively.
After incubation for an appropriate period (e.g., 5, 15, 30, 45, and 60 minutes), 180 μL of stop solution was added to each test compound and control compound sample well in the Blank60, T5, T15, T30, T45, T60, and NCF60 plates to stop the reaction.
All sample plates were shaken thoroughly and centrifuged for 10 minutes. A volume of 80 μL of the supernatant from each test compound was diluted to 240 L with a solution of acetonitrile (1:9, v/v) containing 0.1% formic acid for LC-MS/MS analysis.
Data set [6] is described as follows: In vitro liver microsomal stability, mouse liver microsomes. A general note: Liver microsomes are a subcellular fraction often used to study metabolism.
Experimental: as §1, §2
For the T0, T5, T15, T30, T45, T60, and NCF60 plates, 5 μL of either the test or control compound working solution and 100 μL of microsomal working solution (with a liver microsomal protein concentration of 0.5 mg/mL) were added. Only microsomal working solution was added to the Blank60 well. In the Blank60 plate, only the microsomal working solution was added. Then, the incubation plates, except for TO and NCF60, including Blank60, T5, T15, T30, T45, and T60, were pre-incubated in a 37° C. water bath for approximately 10 minutes. […]

Chain of PARP1 (P09874 whole entry): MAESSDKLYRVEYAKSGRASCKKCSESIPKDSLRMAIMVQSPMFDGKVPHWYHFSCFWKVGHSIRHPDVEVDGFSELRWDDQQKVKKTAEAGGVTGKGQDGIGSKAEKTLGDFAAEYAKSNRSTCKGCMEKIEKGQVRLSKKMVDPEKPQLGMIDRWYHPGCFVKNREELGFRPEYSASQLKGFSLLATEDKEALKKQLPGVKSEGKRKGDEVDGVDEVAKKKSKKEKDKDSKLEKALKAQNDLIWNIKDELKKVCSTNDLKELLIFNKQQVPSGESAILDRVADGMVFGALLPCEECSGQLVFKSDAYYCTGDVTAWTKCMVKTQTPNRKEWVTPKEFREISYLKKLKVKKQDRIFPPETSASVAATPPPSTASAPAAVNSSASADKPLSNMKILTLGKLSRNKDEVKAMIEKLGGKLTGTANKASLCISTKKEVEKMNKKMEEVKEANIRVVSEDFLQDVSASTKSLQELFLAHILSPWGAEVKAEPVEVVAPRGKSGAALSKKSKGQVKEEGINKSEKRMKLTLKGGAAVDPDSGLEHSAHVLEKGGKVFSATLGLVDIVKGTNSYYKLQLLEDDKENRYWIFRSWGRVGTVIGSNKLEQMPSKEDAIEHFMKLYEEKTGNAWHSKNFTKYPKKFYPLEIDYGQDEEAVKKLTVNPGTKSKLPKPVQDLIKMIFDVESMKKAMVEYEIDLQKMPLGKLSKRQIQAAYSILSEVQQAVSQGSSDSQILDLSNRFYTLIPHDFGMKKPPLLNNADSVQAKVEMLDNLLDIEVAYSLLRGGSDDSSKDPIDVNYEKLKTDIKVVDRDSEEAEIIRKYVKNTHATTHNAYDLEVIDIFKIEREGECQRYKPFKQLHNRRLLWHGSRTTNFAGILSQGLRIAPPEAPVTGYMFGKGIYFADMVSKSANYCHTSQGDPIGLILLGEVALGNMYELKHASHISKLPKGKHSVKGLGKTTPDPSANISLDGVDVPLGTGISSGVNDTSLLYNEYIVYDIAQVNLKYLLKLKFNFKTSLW
Chain of PARP2 (Q9UGN5 whole entry): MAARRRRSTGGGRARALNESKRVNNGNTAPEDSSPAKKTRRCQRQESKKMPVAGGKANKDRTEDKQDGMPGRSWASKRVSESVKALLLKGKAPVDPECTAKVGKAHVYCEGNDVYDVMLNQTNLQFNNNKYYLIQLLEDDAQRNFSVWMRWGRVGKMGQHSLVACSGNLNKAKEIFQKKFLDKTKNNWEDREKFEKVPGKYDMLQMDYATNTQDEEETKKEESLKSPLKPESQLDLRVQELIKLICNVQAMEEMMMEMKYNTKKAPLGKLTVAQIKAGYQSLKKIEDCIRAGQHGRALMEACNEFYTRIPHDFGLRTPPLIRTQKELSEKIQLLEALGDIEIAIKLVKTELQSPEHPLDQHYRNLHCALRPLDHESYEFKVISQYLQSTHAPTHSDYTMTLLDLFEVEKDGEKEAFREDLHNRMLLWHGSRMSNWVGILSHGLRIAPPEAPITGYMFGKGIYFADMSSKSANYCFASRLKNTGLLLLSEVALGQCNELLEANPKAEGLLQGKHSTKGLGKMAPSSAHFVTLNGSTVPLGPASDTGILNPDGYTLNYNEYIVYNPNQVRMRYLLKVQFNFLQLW

As to `CNC(=O)c1ccc2c(n1)CC[C@H]1CN(Cc3c(F)cc4nc(C)c(=O)[nH]c4c3F)CCN21` [Trifluoroacetate of compound 19], the values for the pIC50 in data set [1], in data set [2] and in data set [3] were 7.85, less than 4.30 and 7.62, respectively.

For the molecule `[2H]C([2H])(c1ccc2c([nH]c(=O)c3cccnc32)c1F)N1CCN(c2ccc(C(=O)NC)nc2F)CC1` [Compound 44], in data set [4], the pIC50 is 9.19.

For `CNC(=O)c1ccc(C2=CCN(Cc3ccc4c([nH]c(=O)c5cccnc54)c3F)CC2)c(F)n1` [Compound 27], in data set [4], the pIC50 was 9.16. Further, in data set [5], the CLint scaled (as a rule, a measure of how fast metabolising enzymes remove a compound, apart from limits set by blood flow) at 1 μM amounted to 9.5 mL/min/kg and the half-life – broadly, the time needed for the level to fall by half in the phase considered – at 1 μM turned out to be 2.2 h.

As to `CNC(=O)c1ccc(N2CCN(Cc3ccc4c([nH]c(=O)c5cc(F)cnc54)c3F)CC2)c(Cl)n1` [Compound 50], the pIC50 is 8.10 in data set [1], less than 4.70 in data set [2] and 9.39 in data set [4].

`CNC(=O)c1ccc(N2CCN(Cc3cc(F)c4nc(C)c(=O)[nH]c4c3F)CC2)c(F)n1` [Trifluoroacetate of compound 22]: the pIC50 in data set [4] was 8.24; in data set [3] it was 8.35.

Consider `[2H]C([2H])([2H])NC(=O)c1ccc(C2=CCN(Cc3ccc4c([nH]c(=O)c5cccnc54)c3F)CC2)c(F)n1` [Compound 31], for which the pIC50 is 8.33 in data set [1], less than 4.70 in data set [2] and 9.12 in data set [4]. This molecule gave a CLint scaled at 1 μM in data set [5] of less than 8.6 mL/min/kg. The half-life at 1 μM in data set [5] was more than 2.42 h.

In data set [1], `[2H]C([2H])([2H])NC(=O)c1ccc(N2CCN(Cc3ccc4c([nH]c(=O)c5cc(F)cnc54)c3F)CC2)c(Cl)n1` [Compound 52] showed a pIC50 of 8.26.

On to `[2H]C([2H])(c1ccc2c([nH]c(=O)c3cccnc32)c1F)N1CCN(c2ccc(C(=O)NC)nc2Cl)CC1` [Compound 45], for which the pIC50 in data set [4] is 9.57.

Turning to `CNC(=O)c1ccc(C2=CCN(Cc3ccc4c([nH]c(=O)c5cccn54)c3F)CC2)c(F)n1` [Compound 28], the pIC50 in data set [4] was 9.43.

In the case of `[2H]C([2H])([2H])NC(=O)c1ccc(N2CCN(Cc3ccc4c([nH]c(=O)c5cccnc54)c3F)CC2)c(F)n1` [Compound 29], the pIC50 in data set [4] is 8.94. Besides, the CLint scaled at 1 μM in data set [6] is less than 38 mL/min/kg.

For `CNC(=S)c1ccc(N2CCN(Cc3ccc4nc(C)c(=O)[nH]c4c3F)CC2)c(F)n1` [Trifluoroacetate of compound 5], the pIC50 in data set [4] is 8.92.
